Assay results taken from patent EP1837033A1, “REMEDY FOR DIABETES CONTAINING Cdk5 INHIBITOR” (Tomizawa, Kazuhito, priority 2004, dated 2006).

How the values were obtained:
MIN6 cells [1] = assay: Insulin secretion of MIN6 cells in KRB, radioimmunoassay (Example 4); type: cell-based, rat; settings: for high-glucose-stimulated insulin secretion: preincubated 30 minutes, stimulated 1 hour with 16.7 mM glucose
islets of Langerhans = assay: Insulin secretion from isolated islets of Langerhans; type: cell-based, rats; settings: for insulin secretion in islets of Langerhans (insulin secretion percentage): low glucose 3.3 mM, 200 nM glibenclamide, 10 µM olomoucine, fig. 5; for insulin secretion: 10 µM, Ringer solution with a high glucose concentration, fig. 4
Protocol: In accordance with Goto et al. (Transplantaion, vol. 43, pp. 725 to 730, 1987), islets of Langerhans were isolated from 6-week-old male Wister rats. The rats were etherized so as to be subjected to thoracotomy. The common bile duct of each rat was removed and a collagenase solution (320 U/ml, Sigma) was slowly injected into the pancreas. Then, the swollen pancreas was excised. The collagenase-containing pancreas was digested at 37°C in a water bath for 30 minutes, followed by dispersion with the use of a pipet. Thereafter, islets of Langerhans were isolated based on the concentration gradient of a Ficoll solution (Amersham Pharmacia). The islets of Langerhans were incubated while being kept at 37°C for 30 minutes in a Ringer solution (119 mM sodium chloride, 4.74 mM potassium chloride, 1.19 mM sodium dihydrogen phosphate, 25 mM sodium bicarbonate, 10 mM HEPES, 2.54 mM calcium chloride, 1.19 mM magnesium chloride, and 0.2% BSA) saturated with a mixed gas of 95% O2 and 5% CO2.
30 minutes after replacement, insulin contained in each stimulation solution was detected using an insulin detection kit (Ab Bead Insulin, Eiken Chemical Co., Ltd.) in accordance with protocols of the kit. The experiment was conducted for each concentration group (n = 6).
30 minutes after replacement, insulin contained in each stimulation solution was using an insulin detection kit (Ab Bead Insulin, Eiken Chemical Co., Ltd.) in accordance with protocols for the kit.
Then, controls (n = 6), samples A (n = 6), samples B (n = 6), and samples C (n = 6) were prepared. […] Further, islets of Langerhans were subjected to ultrasonication for cell disruption, and insulin contents of islets of Langerhans were detected using an insulin detection kit (Ab Bead Insulin, Eiken Chemical Co., Ltd.) in accordance with protocols for the kit in a manner similar to that used above.
In addition, the insulin secretion percentage was calculated by the following formula. Insulin secretion percentage; = (Amount of insulin secreted(μU/ml))/(Amount of insulin in islets of Langerhans(μU/ml)) × 100(%) [formula]

L-VDCC = assay: Whole-cell Ca2+ currents via VDCCs of MIN6 cells (electrophysiology); type: cell-based, rat; settings: 50 µM olomoucine
MIN6 cells [2] = assay: Ca2+ imaging (fura-2) in MIN6 cells; type: cell-based, rat; settings: 50 µM olomoucine
Protocol: MIN6 cells were cultured in a DMEM containing 15% fetal bovine serum, 25 mM glucose, […] 2-mercaptoethanol, and 2 mM glutamine (Lilla, V. et al. Endocrinology 144, 1368-1379 (2003); and Minami, K. et al. Am. J. Physiol. Endocrinol. Metab. 279, 773-781 (2000)). The cells (1 × 10^6) were seeded on a 35-mm glass bottom dish (IWAKI, Tokyo, Japan), followed by cell proliferation for 48 hours. For Ca^2+ imaging, the cells were preincubated at 37°C for 2 hours in a modified Krebs-Ringer bicarbonate HEPES buffer solution (KRB: 125 mM Nacl, 4.74 mM KCl, 1 mM CaCl2, […] KH2PO4, 5 mM NaHCO3, 25 mM HEPES (pH 7.4), and 0.1% BSA) containing 2.8 mM glucose. […] The resulting solution was replaced with KRB containing 17.6 mM glucose or KRB containing 100 nM glibenclamide. The Ca^2+ level of the cells was using an Axiovert 200 inverted microscope (Carl Zeiss Microlmaging) by a dual excitation wavelength method (340/380).
After washing, the cells were stimulated with 17.6 mM glucose (figs. 7a-1 and 7a-2) or 100 nM glibenclamide (figs. 7b-1 and 7b-2). Ca^2+ concentrations were presented as percentages of 340/380 nm fluorescent emission. The graphs (fgs. 7a-1 and 7b-1) show representative traces of changes in Ca^2+ concentration. The graphs (figs. 7a-2 and 7b-2) show the maximum Ca^2+ influxes. Data for each of 20 to 30 cells were collected after each experiment. The mean value of the total values was calculated and normalized every 3 to 4 experiments (*P < 0.01).

MIN6 cells [3] = assay: Insulin secretion of MIN6 cells in Ringer solution (Example 3); type: cell-based, rat; settings: 17.6 mM glucose, 20 µM, 2 hours, fig. 3
Protocol: MIN6 cells capable of secreting insulin (provided by Professor Susumu Seino, Doctral Program in Advanced Biomedical Applications, Department of Cellular and Molecular Medicine, Graduate School of Medicine, Chiba University, 1-33, Yayoi-cho, Inage-ku, Chiba-shi, Chiba, Japan) were cultured in accordance with the method of Mae et al. (American Journal of Physiological Endocrinal Metabolism, 2000, vol. […], pp. 773 to 781). MIN6 cells (5 × 10^5) were in a DMEM medium (GIBCO) and on a 35-mm culture dish (Corning Incorporated), followed by culture for 2 days in an incubator (5% CO2, SANYO).
After culture for 2 hours, insulin contained in medium was detected using an insulin detection kit (Ab Insulin, Eiken Chemical Co., Ltd.) in accordance with protocols for the kit.

[4] = test system: α1C subunit at Ser783 of L-VDCC; assay: Phosphorylation of Ser783 of the L-VDCC α1C subunit in MIN6 cells (immunoprecipitation, Western blotting); type: cell-based, rat; settings: MIN6 cells treated with 50 µM olomoucine, fig. 8d
Protocol: Recombinant cDNA encoding LoopII·III of a human α1C subunit of VDCC was subcloned into pGEX6P (Amersham Bioscience). Serine783 was mutated into alanine according to the manufacturer's instructions (Stratagene). Purified recombinant proteins were phosphorylated in vitro with the use of Cdk5/p35 (Upstate) by a conventional method (Tomizawa, K. et al. J. Cell. Biol. 163, 813-824 (2003)). […] The expression of the phosphorylated α1C subunit at Ser783 was measured using phosphorylation-specific antibodies obtained from serum of a rabbit to which CLARTApSPEKK peptide had been injected. The total amount of the subunits was detected by Western blotting analysis with the use of anti-α1C subunit antibodies (Chemicon).
Immunoprecipitation of Cav1.2 was carried out. Phosphorylation of serine 783 was measured by Western blotting.

[5] = test system: diabetes mouse models KK-Ay; assay: Hypoglycemic effects in diabetes mouse models KK-Ay; type: in vivo; settings: KK-Ay mice, fig. 13
Protocol: 8-week-old ale KK-Ay mice (32 individuals, CLEA Japan, Inc.) were divided into groups (8 individuals each) with the proviso that there would be no differences among groups in terms of blood glucose levels, Hypoglycemic effects of roscovitine (LC Laboratories), which is a CDK5 inhibitor, were examined.
In order to prepare roscovitine at doses of 1 mg/kg, 10 mg/kg, and 100 mg/kg, a suspension (0.5% methylcellulose/physiological saline solution) was used. Then, subcutaneous administration of roscovitine was carried out once daily for 2 consecutive weeks. A solvent alone was administered to a control group. Blood glucose levels were measured one day before day 0 and on days 3, 7, 10, and 14 with the use of a blood glucose monitor (Free Style, NIPRO).
In fig. 13, the unit of the vertical axis is indicated by "mg/dL." In fig. 14, the unit of the vertical axis is indicated by "g."

Cdk5 = Cdk5 (Homo sapiens, UniProt Q00535); settings: cited from earlier work
Sequence of Cdk5 (Q00535 whole entry, species assumed): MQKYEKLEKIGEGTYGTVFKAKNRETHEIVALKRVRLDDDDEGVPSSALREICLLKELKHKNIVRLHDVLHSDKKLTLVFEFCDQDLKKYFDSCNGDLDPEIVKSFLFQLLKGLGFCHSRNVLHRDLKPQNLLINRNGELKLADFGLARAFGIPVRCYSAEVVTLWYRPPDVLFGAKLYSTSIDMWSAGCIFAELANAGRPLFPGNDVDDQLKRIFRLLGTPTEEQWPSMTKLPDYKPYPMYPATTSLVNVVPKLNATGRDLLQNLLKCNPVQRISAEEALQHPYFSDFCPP
Sequence of Cdk5 (Q15078 whole entry partner, species assumed): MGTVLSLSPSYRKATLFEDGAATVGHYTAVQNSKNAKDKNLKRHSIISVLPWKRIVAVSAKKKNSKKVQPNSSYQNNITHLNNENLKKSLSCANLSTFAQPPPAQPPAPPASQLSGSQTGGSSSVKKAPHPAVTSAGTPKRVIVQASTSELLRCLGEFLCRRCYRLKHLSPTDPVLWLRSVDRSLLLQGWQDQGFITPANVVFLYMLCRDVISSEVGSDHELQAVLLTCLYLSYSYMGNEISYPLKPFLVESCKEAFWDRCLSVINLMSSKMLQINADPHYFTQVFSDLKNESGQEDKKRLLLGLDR

For `CC1=NS(=O)(=O)c2cc(Cl)ccc2N1` [diazoxide], the “Olomoucine-dependant promotion of high-glucose-stimulated insulin secretion” value (MIN6 cells [1]; 100 µM diazoxide, 50 µM olomoucine, 17.6 mM glucose, fig. 6g) was “completely suppressed”.
Work on `C=C[C@@]1(C)CC(=O)[C@]2(O)[C@@]3(C)[C@@H](O)CCC(C)(C)[C@@H]3[C@H](O)[C@H](OC(C)=O)[C@@]2(C)O1` [forskolin] yielded a forskolin-stimulated insulin secretion (MIN6 cells [1]; 10 µM forskolin, 50 µM olomoucine, KRB 2.8 mM glucose, fig. 6h, unit not given) of 122.7 ± 9.3.
In the case of `COc1ccc(Cl)cc1C(=O)NCCc1ccc(S(=O)(=O)NC(=O)NC2CCCCC2)cc1` [glibenclamide], the “insulin secretion in islets of Langerhans (insulin secretion percentage)” value (islets of Langerhans; 30 minutes) is reported as “significant increase in insulin secretion”, the insulin secretion (MIN6 cells [1]; KRB high glucose 17.6 mM, fig. 6f) is reported as 412.5 ± 35.7 µg/h and the insulin secretion (MIN6 cells [1]; KRB low glucose 2.8 mM, fig. 6e) is reported as 116.3 ± 1.0 µg/h.
With `Cn1cnc2c(NCc3ccccc3)nc(NCCO)nc21` [olomoucine] the insulin secretion (islets of Langerhans) was “significantly promoted insulin secretion”, the “insulin secretion of islets of Langerhans” value (islets of Langerhans; 3.3 mM glucose (low), olomoucine at different concentrations, 30 minutes, fig. 1) was “had no influence at all” and the insulin secretion levels (islets of Langerhans; 17.3 mM glucose (high), olomoucine at different concentrations, 30 minutes, versus absence of olomoucine, fig. 2) was “significantly increased”. The “secretion at low glucose levels” value (islets of Langerhans; isolated islets of Langerhans, fig. 9a) was “did not influence”, the “insulin secretion in islets of Langerhans (insulin secretion percentage)” value (islets of Langerhans; 30 minutes) was “did not influence insulin secretion” and the “glucose-stimulated insulin secretion in isolated islets of Langerhans” value (islets of Langerhans; olomoucine at concentrations shown in fig. 9a) was “promoted glucose-stimulated insulin secretion in a dose-dependent manner”. The “Peak Ca2+ currents” value (L-VDCC; depolarization to 10 mV, control cells -15.1 ± 1.67 A/F) was -20.1 ± 1.59 A/F, the “inward Ca2+ currents” value (L-VDCC; step pulses from -40 mV to +60 mV, fig. 7c) was “enhanced inward Ca^2+ currents” and the “Ca2+ influxes in the absence of glucose and glibenclamide” value (MIN6 cells [2]) was “did not influence”. For the same molecule, the “Ca2+ influxes induced by glibenclamide” value (MIN6 cells [2]; 100 nM glibenclamide, maximum Ca2+ influx normalized, figs. 7b-1 and 7b-2) was 129 ± 4.5%, the “Ca2+ influxes induced by glucose” value (MIN6 cells [2]; 17.6 mM glucose, maximum Ca2+ influx normalized, figs. 7a-1 and 7a-2) was 114.4 ± 2.1% and the “insulin secretion of MIN6 cells” value (MIN6 cells [3]) was “action of promoting insulin secretion”. The “insulin secretion under low glucose conditions” value (MIN6 cells [1]; 2.8 mM glucose, 1 hour, fig. 6c) was “insulin secretion was not promoted”, the “insulin secretion induced by forskolin” value (MIN6 cells [1]; effect of 50 µM olomoucine, 10 µM forskolin, 2.8 mM glucose, P > 0.05, fig. 6h) was “did not influence” and the “insulin secretion induced by glibenclamide” value (MIN6 cells [1]; effect of olomoucine, low glucose 2.8 mM, fig. 6e) was “significantly promoted”. The high-glucose-stimulated insulin secretion (MIN6 cells [1]; fig. 6c) was “promoted high-glucose-stimulated insulin secretion in a dose-dependent manner” and the “phosphorylation of Ser783” value [4] was “decrease in phosphorylation”.
In the case of `CC[C@H](CO)Nc1nc(NCc2ccccc2)c2ncn(C(C)C)c2n1` [roscovitine], the “insulin secretion of MIN6 cells” value (MIN6 cells [3]) is reported as “promoted”, the blood glucose levels ([5]; 1 mg/kg subcutaneous once daily for 2 consecutive weeks) is reported as “obvious hypoglycemic effects were not observed” and the blood glucose levels ([5]; 10 mg/kg subcutaneous once daily for 2 consecutive weeks) is reported as “obvious hypoglycemic effects were not observed”. The blood glucose levels ([5]; 100 mg/kg subcutaneous once daily for 2 consecutive weeks) was “statistically significant decreases” and the high-glucose-stimulated insulin secretion (MIN6 cells [1]; fig. 6c) was “also confirmed”.
For iso-olomoucine, the insulin secretion (islets of Langerhans) is given as “did not promote insulin secretion at all”, the Cdk5 inhibitory effect (Cdk5) is given as “does not have a Cdk5 inhibitory effect” and the insulin secretion (MIN6 cells [1]; 20 µM, fig. 6d) is given as “did not influence insulin secretion”.
